This passage reports melting point results from patent US20060094764A1, “Cyanothiophenes, their preparation and their use in pharmaceutical compositions” (Boehringer Ingelheim International GmbH, priority 2004, published 2006).

Where a name gives a salt, the structure may show the parent alone. Where only a bound is given, the exact number is not on record here.

As a reminder, the melting point is the temperature, or range, at which the solid turns liquid. `Cc1ccc(C)c(C2SC(NC(=O)C3CC4CCC3CC4)=C(C#N)C2(Cl)C(F)(F)F)c1` (stereo not shown) yielded a melting point of 242 to 244 °C. The same measure for `Cc1ccc(C)c(-c2cc(C#N)c(NC(=O)[C@@H]3C[C@@H]4CC[C@H]3C4)s2)c1`: 168 to 169 °C; for `Cc1ccc(N(C)CCCc2sc(NC(=O)C3CC4CCC3CC4)c(C#N)c2C)cc1` (stereo not shown) (as salt: hydrochloride): 133 to 140 °C. In turn, `Cc1ccc(C)c(-c2sc(NC(=O)[C@H]3C[C@@H]4CC[C@H]3C4)c(C#N)c2C(F)(F)F)c1` came in with a melting point of 242 °C. The same measure for `Cc1ccc(C)c(-c2sc(NC(=O)[C@H]3C[C@H]4CC[C@@H]3C4)c(C#N)c2C(F)(F)F)c1`: 230 °C; for `Cc1ccc(C)c(-c2sc(NC(=O)[C@@H]3C[C@H]4CC[C@@H]3C4)c(C#N)c2C(F)(F)F)c1`: 239 to 240 °C. For the molecule `Cc1ccc(N(C)CCCc2sc(NC(=O)[C@@H]3C[C@@H]4CC[C@H]3C4)c(C#N)c2C)cc1` (as salt: hydrochloride), the melting point was 116 to 129 °C (dec.). The same measure for `N#Cc1c(NC(=O)C2CCCCC2)sc(-c2ccccc2)c1C#N`: 208 to 212 °C; for `N#Cc1c(NC(=O)C2CCCCC2)sc(-c2ccccc2)c1Cl`: 175 to 180 °C. With `N#Cc1c(NC(=O)C2CCCCC2)sc(-c2ccccc2)c1[N+](=O)[O-]` the figure was 213 to 214 °C; with `Cc1ccc(C)c(-c2sc(NC(=O)[C@@H]3C[C@@H]4CC[C@H]3C4)c(C#N)c2Cl)c1`, 117 to 119 °C. For the molecule `Cc1ccc(C)c(-c2sc(NC(=O)[C@@H]3C[C@@H]4CC[C@H]3C4)c(C#N)c2C(F)(F)F)c1`, the melting point is 231 to 233 °C. The same measure for `Cc1ccc(C)c(-c2sc(NC(=O)[C@@H]3C[C@@H]4C=C[C@H]3C4)c(C#N)c2C(F)(F)F)c1`: 213 to 214 °C; for `Cc1ccc(C)c(-c2sc(NC(=O)[C@H]3C[C@H]4C=C[C@@H]3C4)c(C#N)c2C(F)(F)F)c1`: 209 to 211 °C; for `Cc1c(CCCN(C)c2ccccn2)sc(NC(=O)C2CC3CCC2CC3)c1C#N` (stereo not shown) (as salt: hydrochloride): > 80 °C (dec.). Molecule `N#Cc1c(NC(=O)C2CCCCC2)sc(-c2ccccc2)c1Br` came in with a melting point of 167 to 168 °C. With `Cc1ccc(C)c(-c2sc(NC(=O)[C@@H]3C[C@H]4CC[C@@H]3CC4)c(C#N)c2Cl)c1` (stereo in doubt) the figure was 208 to 210 °C. With `CCCc1sc(NC(=O)C2CCCCC2)c(C#N)c1OC` the figure was 146 to 147 °C; with `Cc1ccc(C)c(-c2sc(NC(=O)[C@@H]3C[C@H]4C=C[C@@H]3C4)c(C#N)c2C(F)(F)F)c1`, 226 to 227 °C.
